{"source": "patent US11993588B2", "about": "“Crystalline forms of a MAGL inhibitor” (H. Lundbeck A/S, priority 2016, dated 2024)", "assay_type_in_all_cases": "physicochemical", "key": {"[1]": {"experiment": "Solvent solubility screen for Compound 1", "conditions": "thermodynamic from solid, crystalline Compound 1 (Form 1), read-out: Approximate Solubility", "experimental": "Ca. 10 mg of crystalline Compound 1 was placed in 32 vials and 5 volume aliquots of the appropriate solvent systems were added to the appropriate vial. Between each addition, the mixture was checked for dissolution and if no dissolution was apparent, the mixture was heated to ca. 40° C. and checked again. This procedure was continued until dissolution was observed or until 100 volumes of solvent had been added. After the addition of 100 volumes, a further 100 volumes were added to samples which had not dissolved to give a total of 200 volumes. If 200 volumes were added without dissolution, the solubility was calculated to be below this point (<5 mg/mL)."}, "[2]": {"experiment": "Gravimetric vapor sorption (GVS)", "conditions": "for hygroscopic nature / weight uptake: GVS; for Post-GVS analysis by XRPD (form change): after GVS sorption/desorption cycle", "experimental": "Approximately 10 mg of sample was placed into a mesh vapour sorption balance pan and loaded into an IGASorp Moisture Sorption Analyser balance by Hiden Analytical. The sample was subjected to a ramping profile from 40-90% relative humidity (RH) at 10% increments, maintaining the sample at each step until a stable weight had been achieved (98% step completion). After completion of the sorption cycle, the sample was dried using the same procedure to 0% RH, and finally taken back to the starting point of 40% RH. The weight change during the sorption/desorption cycles were plotted, allowing for the hygroscopic nature of the sample to be determined."}, "7-day stability testing": {"experiment": "7-day stability testing", "experimental": "Form 2 of Compound 2 was scaled up in two solvents. Material underwent 7-day stability testing and/or aqueous solubility assessment. The 7-day stability testing was conducted as follows. Material was exposed to environments of 40° C./75% RH, ambient light and 80° C. for 7 days and the resulting solids analysed by XRPD to determine if any changes had occurred, and by HPLC to determine purity. The aqueous solubility assessment was conducted as follows. A slurry was created in deionised water (5.1 mg of Form 2 and 300 μL of water) and shaken for ca. 24 hours at ambient temperature (ca. 22° C.). The initial pH and final pH were measured. The resulting mixture was then isolated by centrifuge filtration, and the solution obtained analysed by HPLC to calculate the concentration of material dissolved. Remaining solid was analysed by XRPD to determine if any changes had occurred on slurrying."}, "[3]": {"experiment": "Compound 6 polymorph screen", "conditions": "among the three Compound 6 polymorphs", "source_text": "In a Compound 6 polymorph screen, two additional Compound 6 crystalline forms were identified. Compound 6, Form 2, was isolated from a 95/5 acetone/water slurry and Compound 6, Form 3, was isolated from in a 80/20 dioxane/water mixture."}, "[4]": {"conditions": "ambient light / ambient conditions for 7 days"}}, "note": "Counter-ions that a name gives are not always drawn. Like-named read-outs stand apart in the source and are kept apart here.", "data": [{"smiles": "O=C(OC(C(F)(F)F)C(F)(F)F)N1CCN(Cc2ccc(C(F)(F)F)cc2N2CCCC2)CC1", "note": "[Compound 1, 1,1,1,3,3,3-hexafluoropropan-2-yl 4-(2-(pyrrolidin-1-yl)-4-(trifluoromethyl)benzyl)piperazine-1-carboxylate]", "values": [{"measurement": "solubility", "setting": "[1]; aqueous with cosolvent or surfactant or cyclodextrin, 2-Propanol:water (50%)", "value": "< 5", "unit": "mg/mL"}, {"measurement": "solubility", "setting": "[1]; aqueous with cosolvent or surfactant or cyclodextrin, Acetone:water (50%), precipitated after ca. 30 minutes", "value": "> 202", "unit": "mg/mL"}, {"measurement": "solubility", "setting": "[1]; aqueous with cosolvent or surfactant or cyclodextrin, Methanol:water (50%)", "value": "< 5", "unit": "mg/mL"}, {"measurement": "solubility", "setting": "[1]; organic solvent or mixture, 1,4-Dioxane", "value": "> 206", "unit": "mg/mL"}, {"measurement": "solubility", "setting": "[1]; organic solvent or mixture, 1-Butanol", "value": 39, "unit": "mg/mL"}, {"measurement": "solubility", "setting": "[1]; organic solvent or mixture, 2-Ethoxyethanol", "value": 103, "unit": "mg/mL"}, {"measurement": "solubility", "setting": "[1]; organic solvent or mixture, 2-Methyl tetrahydrofuran", "value": "> 200", "unit": "mg/mL"}, {"measurement": "solubility", "setting": "[1]; organic solvent or mixture, 2-Propanol, precipitated after ca. 2 days", "value": 69, "unit": "mg/mL"}, {"measurement": "solubility", "setting": "[1]; organic solvent or mixture, Acetone", "value": "> 202", "unit": "mg/mL"}, {"measurement": "solubility", "setting": "[1]; organic solvent or mixture, Acetonitrile", "value": "> 196", "unit": "mg/mL"}, {"measurement": "solubility", "setting": "[1]; organic solvent or mixture, Anisole", "value": "> 200", "unit": "mg/mL"}, {"measurement": "solubility", "setting": "[1]; organic solvent or mixture, Benzonitrile", "value": "> 214", "unit": "mg/mL"}, {"measurement": "solubility", "setting": "[1]; organic solvent or mixture, Chlorobenzene", "value": 69, "unit": "mg/mL"}, {"measurement": "solubility", "setting": "[1]; organic solvent or mixture, Dichloromethane", "value": "> 198", "unit": "mg/mL"}, {"measurement": "solubility", "setting": "[1]; organic solvent or mixture, Diisopropyl Ether", "value": "> 208", "unit": "mg/mL"}, {"measurement": "solubility", "setting": "[1]; organic solvent or mixture, Dimethylacetamide", "value": "> 204", "unit": "mg/mL"}, {"measurement": "solubility", "setting": "[1]; organic solvent or mixture, Dimethylformamide", "value": "> 204", "unit": "mg/mL"}, {"measurement": "solubility", "setting": "[1]; organic solvent or mixture, Dimethylsulfoxide", "value": 50, "unit": "mg/mL"}, {"measurement": "solubility", "setting": "[1]; organic solvent or mixture, Ethanol", "value": 67, "unit": "mg/mL"}, {"measurement": "solubility", "setting": "[1]; organic solvent or mixture, Ethyl acetate", "value": "> 198", "unit": "mg/mL"}, {"measurement": "solubility", "setting": "[1]; organic solvent or mixture, Heptane", "value": 49, "unit": "mg/mL"}, {"measurement": "solubility", "setting": "[1]; organic solvent or mixture, Hexane", "value": 49, "unit": "mg/mL"}, {"measurement": "solubility", "setting": "[1]; organic solvent or mixture, Isopropyl acetate", "value": "> 198", "unit": "mg/mL"}, {"measurement": "solubility", "setting": "[1]; organic solvent or mixture, Methanol", "value": 72, "unit": "mg/mL"}, {"measurement": "solubility", "setting": "[1]; organic solvent or mixture, Methyl isobutyl ketone", "value": "> 196", "unit": "mg/mL"}, {"measurement": "solubility", "setting": "[1]; organic solvent or mixture, Methylethyl ketone", "value": "> 202", "unit": "mg/mL"}, {"measurement": "solubility", "setting": "[1]; organic solvent or mixture, N-Methyl-2-pyrrolidone", "value": "> 198", "unit": "mg/mL"}, {"measurement": "solubility", "setting": "[1]; organic solvent or mixture, Tetrahydrofuran", "value": "> 198", "unit": "mg/mL"}, {"measurement": "solubility", "setting": "[1]; organic solvent or mixture, Toluene", "value": "> 202", "unit": "mg/mL"}, {"measurement": "solubility", "setting": "[1]; organic solvent or mixture, tert-Amyl alcohol", "value": 69, "unit": "mg/mL"}, {"measurement": "solubility", "setting": "[1]; organic solvent or mixture, tert-Butylmethyl ether", "value": "> 196", "unit": "mg/mL"}, {"measurement": "solubility", "setting": "[1]; Water", "value": "< 5", "unit": "mg/mL"}]}, {"smiles": "Cl.Cl.O=C(OC(C(F)(F)F)C(F)(F)F)N1CCN(Cc2ccc(C(F)(F)F)cc2N2CCCC2)CC1", "note": "[Compound 3, 1,1,1,3,3,3-hexafluoropropan-2-yl 4-(2-(pyrrolidin-1-yl)-4-(trifluoromethyl)benzyl)piperazine-1-carboxylate bis-HCl salt]", "values": [{"measurement": "hygroscopic nature", "setting": "[2]", "value": "slightly hygroscopic"}, {"measurement": "weight uptake", "setting": "[2]; at 90% RH", "value": 1.4, "unit": "%"}, {"measurement": "Post-GVS analysis by XRPD (form change)", "setting": "[2]", "value": "remain unchanged"}]}, {"smiles": "CS(=O)(=O)O.O=C(OC(C(F)(F)F)C(F)(F)F)N1CCN(Cc2ccc(C(F)(F)F)cc2N2CCCC2)CC1", "note": "[Compound 5, 1,1,1,3,3,3-hexafluoropropan-2-yl 4-(2-(pyrrolidin-1-yl)-4-(trifluoromethyl)benzyl)piperazine-1-carboxylate mesylate salt]", "values": [{"measurement": "HPLC purity after stability testing", "setting": "7-day stability testing; 40° C./75% RH for 7 days", "value": 99.98, "unit": "%"}, {"measurement": "HPLC purity after stability testing", "setting": "7-day stability testing; 80° C. for 7 days", "value": 99.97, "unit": "%"}, {"measurement": "HPLC purity after stability testing", "setting": "7-day stability testing; [4]", "value": 99.95, "unit": "%"}, {"measurement": "hygroscopic nature", "setting": "[2]", "value": "moderately hygroscopic"}, {"measurement": "weight uptake", "setting": "[2]; at 90% RH", "value": 3.5, "unit": "%"}, {"measurement": "weight uptake", "setting": "[2]; up to 70% humidity", "value": 2.8, "unit": "%"}, {"measurement": "Post-GVS analysis by XRPD (form change)", "setting": "[2]", "value": "maintained its form and crystallinity"}]}, {"smiles": "O=C(OC(C(F)(F)F)C(F)(F)F)N1CCN(Cc2ccc(C(F)(F)F)cc2N2CCCC2)CC1", "note": "[Compound 6, 1,1,1,3,3,3-hexafluoropropan-2-yl 4-(2-(pyrrolidin-1-yl)-4-(trifluoromethyl)benzyl)piperazine-1-carboxylate fumarate salt]", "values": [{"measurement": "relative thermodynamic stability of polymorphs", "setting": "[3]", "value": "thermodynamically most stable form"}, {"measurement": "HPLC purity after stability testing", "setting": "7-day stability testing; 40° C./75% RH for 7 days", "value": 99.9, "unit": "%"}, {"measurement": "HPLC purity after stability testing", "setting": "7-day stability testing; 80° C. for 7 days", "value": 99.9, "unit": "%"}, {"measurement": "HPLC purity after stability testing", "setting": "7-day stability testing; [4]", "value": 99.9, "unit": "%"}]}]}
